Source: patent US6187793A, “7-[(Piperidin-1-YL)-Propoxy]-chromen-4-one derivatives, their preparation and their pharmaceutical use” (Ferrer Internacional, S.A., priority 1997, dated 2001)
“Also recorded” adds a separate entry of the source. Read-outs that look alike come from different tables or passages of the source.

Legend:
[1] = target: T1, 5-HT2A receptors (Rattus norvegicus, UniProt P14842); test: specific binding to 5-HT2A receptors ([3H]ketanserin, rat cortex membrane); conditions: for IC50: [3H]ketanserin 0.5 nM, rat cortex, 30 min, 35° C., pH 7.4; for potency as ligand of 5-HT2A receptors versus compound of Example 2' of ES 9600323: in words, from Table 1
T1 construct: membrane corresponding to 1 mg of rat cortex; from tissue; host or cells: rat cortex membrane

[2] = target: T2, histamine H1 receptors (Cavia porcellus, UniProt P31389); test: biochemical; type: binding, guinea-pig; conditions: for potency as ligand of H1 receptors versus compound of Example 2' of ES 9600323 / potency as ligand of H1 receptors versus promethazine: in words, from Table 2
T2 construct: incubation of guinea-pig cerebellum membranes; from tissue; host or cells: guinea-pig cerebellum membranes
Method: The bound radioactivity was separated by filtration (Whatman GF/B) in a Brandel Harvester. The amount of receptor-bound radioactivity present in the filters was determined using a Packard 1800TR counter. The specific binding was established with a 1 μM concentration of triprolidine.

[3] = system: apomorphine-induced climbing behaviour; test: inhibition test of apomorphine-induced climbing behaviour; type: in vivo, male Swiss mice; conditions: Mus musculus, 1 h, read-out: Climbing ID50
Method: For the practical performance of this experiment, male Swiss mice weighing 22-24 g were used. One week prior to experiment, animals were kept in our facilities at a temperature of 20-22° C. and 12/12 h light-dark cycle, and had free access to food and water. Two hours prior to experiment, the animals were placed in individual cages without access to food.
Animals were administered orally with test drug or 0.25% agar at time 0. After 60 minutes, apomorphine was subcutaneously injected at a dose of 1 mg/kg, and after further 70 minutes the animal's behaviour was assessed. Two additional assessments were performed at 10-min intervals.
(§1) For assessment, each animal was placed on the bottom of a small upright box ([…]). The walls of the box were made of translucent methacrylate except one of the lateral surfaces (7.5 cm wide) which was a 3-mm wire mesh. The position of the animal was scored for 2 minutes according to the following criteria: 0=four paws on the floor; 1=three paws on the floor; 2=two paws on the floor; 3=one paw on the floor; and 4=four paws holding the wire mesh. If an animal keeps several positions within the 2-min observation, the seconds elapsed in each position will be recorded. Finally, mean scoring was calculated.

[4] = catalepsy test (cataleptic activity, oral route); conditions: rat
Method: as §1

[5] = target: D2 receptors (Rattus norvegicus, UniProt P61169); test: specific binding to D2 receptors ([3H]spiperone, rat striatum membrane); conditions: in words, from Table 1
[6] = therapeutic index (catalepsy ED50 / climbing ID50); conditions: for selectivity ratio: in vivo, po; for therapeutic index versus compound of Example 2' of ES 9600323 and haloperidol: in words, from Table 3
Method: as §1

[7] = oral, male Swiss mice, apomorphine 1 mg/kg s.c. after 60 minutes

T1 sequence (P14842 whole entry): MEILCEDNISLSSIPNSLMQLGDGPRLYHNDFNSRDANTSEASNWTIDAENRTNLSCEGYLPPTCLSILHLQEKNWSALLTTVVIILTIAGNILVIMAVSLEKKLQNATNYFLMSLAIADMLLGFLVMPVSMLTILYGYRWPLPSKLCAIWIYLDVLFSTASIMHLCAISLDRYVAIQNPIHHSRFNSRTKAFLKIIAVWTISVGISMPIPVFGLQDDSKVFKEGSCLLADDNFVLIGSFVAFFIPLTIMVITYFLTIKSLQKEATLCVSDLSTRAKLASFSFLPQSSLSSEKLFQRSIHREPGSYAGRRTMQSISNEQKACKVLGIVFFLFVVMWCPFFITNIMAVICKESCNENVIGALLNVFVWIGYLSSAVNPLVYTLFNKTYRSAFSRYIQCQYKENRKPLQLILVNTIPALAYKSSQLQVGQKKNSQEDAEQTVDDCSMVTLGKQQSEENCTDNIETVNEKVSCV
T2 sequence (P31389 whole entry): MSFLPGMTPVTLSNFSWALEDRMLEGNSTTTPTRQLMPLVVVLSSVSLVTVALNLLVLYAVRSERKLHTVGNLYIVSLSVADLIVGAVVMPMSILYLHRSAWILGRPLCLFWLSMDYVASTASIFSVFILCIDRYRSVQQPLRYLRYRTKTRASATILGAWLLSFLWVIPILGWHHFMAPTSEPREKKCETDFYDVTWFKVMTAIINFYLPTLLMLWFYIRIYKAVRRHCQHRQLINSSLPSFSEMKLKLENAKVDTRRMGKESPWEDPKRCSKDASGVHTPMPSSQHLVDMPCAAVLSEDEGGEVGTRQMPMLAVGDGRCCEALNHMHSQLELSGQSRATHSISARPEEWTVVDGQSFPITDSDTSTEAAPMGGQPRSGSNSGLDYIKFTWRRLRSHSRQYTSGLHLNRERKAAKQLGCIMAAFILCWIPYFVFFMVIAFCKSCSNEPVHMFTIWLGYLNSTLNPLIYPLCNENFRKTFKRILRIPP
Sequence of D2 receptors (P61169 whole entry): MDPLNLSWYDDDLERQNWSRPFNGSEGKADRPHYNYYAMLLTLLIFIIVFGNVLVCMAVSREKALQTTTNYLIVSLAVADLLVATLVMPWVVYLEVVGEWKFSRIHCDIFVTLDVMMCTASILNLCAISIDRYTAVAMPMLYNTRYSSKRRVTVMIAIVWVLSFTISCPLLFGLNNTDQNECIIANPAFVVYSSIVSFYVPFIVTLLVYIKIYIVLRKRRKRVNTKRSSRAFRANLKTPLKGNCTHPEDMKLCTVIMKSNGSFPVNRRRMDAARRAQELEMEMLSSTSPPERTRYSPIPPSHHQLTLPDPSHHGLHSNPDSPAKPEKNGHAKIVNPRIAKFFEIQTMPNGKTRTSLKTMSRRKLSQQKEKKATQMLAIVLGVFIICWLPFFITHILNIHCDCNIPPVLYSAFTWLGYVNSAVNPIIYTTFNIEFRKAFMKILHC

SMILES	IC50 [1]	TD50 ([4]; in vivo)	potency as ligand of 5-HT2A receptors versus compound of Example 2' of ES 9600323 [1]	potency as ligand of D2 receptors versus compound of Example 2' of ES 9600323 [5]	IC50 [2]	potency as ligand of H1 receptors versus compound of Example 2' of ES 9600323 [2]	ED50 [3, 7]	TD50 ([4]; po)	selectivity ratio [6]	therapeutic index versus compound of Example 2' of ES 9600323 and haloperidol [6]	further results
O=c1c(CO)coc2cc(OCCCN3CCC(c4noc5cc(F)ccc45)CC3)ccc12 [Ex. 2' (ES 9600323), reference compound]	3.08 nM	3.8 mg/kg									IC50 ([2]; [3H]-pyrilamine 1 nM, guinea-pig cerebellum, 25° C., 60 minutes, read-out: IC50, H1 receptors): 1.2 nM; ED50 ([3]; po): 0.25 mg/kg
O=Cc1coc2cc(OCCCN3CCC(c4noc5cc(F)ccc45)CC3)ccc2c1=O [Example 1, 7-[3-[4-(6-fluorobenzo[d]isoxazole-3-yl)piperidine-1-yl]propoxy]-3-formyl-chromen-4-one]	2.11 nM		more potent	more potent							
Cl.O=C(O)c1coc2cc(OCCCN3CCC(c4noc5cc(F)ccc45)CC3)ccc2c1=O [Example 2, 7-[3-[4-(6-fluorobenzo[d]isoxazole-3-yl)piperidin-1-yl]propoxy]-4-oxochromene-3-carboxylic acid hydrochloride]	0.594 nM		more potent	more potent							
COCc1coc2cc(OCCCN3CCC(c4noc5cc(F)ccc45)CC3)ccc2c1=O.Cl [Example 3, 7-[3-[4-(6-fluorobenzo[d]isoxazole-3-yl)piperidin-1-yl]propoxy]-3-methoxymethyl-chromen-4-one hydrochloride]					0.339 nM	more potent	0.21 mg/kg	6.79 mg/kg	32.3	higher therapeutic index	potency as ligand of H1 receptors versus promethazine ([2]; hydrochloride): of the same order as promethazine; also recorded: greater than that of standard promethazine
Cl.O=c1cc(CO)oc2cc(OCCCN3CCC(c4noc5cc(F)ccc45)CC3)ccc12 [Example 6, 7-[3-[4-(6-fluorobenzo[d]isoxazole-3-yl)piperidin-1-yl]propoxy]-2-(hydroxymethyl)-chromen-4-one hydrochloride]					1.01 nM	more potent	5.87 mg/kg	> 100 mg/kg	> 17	higher therapeutic index	potency as ligand of H1 receptors versus promethazine [2]: of the same order as promethazine
O=C(CCCN1CCC(O)(c2ccc(Cl)cc2)CC1)c1ccc(F)cc1 [Haloperidol, haloperidol, reference compound]		2 mg/kg					0.32 mg/kg				
